# Results reported in patent US8410309B2, “Phenoxy carboxylic acid compounds and compositions for delivering active agents” (Emisphere Technologies, Inc., priority 1999, dated 2013).
# Several values for one entry are separate records, joined by “and”; a condition that tells them apart may be missing. Equal entries are not always repeated. Where two headings read alike, the source gives them in different places.
# Assays:
# [1] = Heparin oral/intracolonic delivery, clotting time by activated partial thromboplastin time (APTT); type: in vivo, Sprague-Dawley rats; details: rats, baseline about 20 seconds
# Procedure, shortened: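 Heparin sodium with a delivery agent in 25% aqueous propylene glycol, pH about 7, was dosed by oral gavage or intracolonically. Citrated cardiac blood was taken under ketamine (88 mg/kg) at 0.25, 0.5, 1.0 and 1.5 h after dosing. Absorption was read as a rise in APTT clotting time.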
# [2] = rat, in vivo, po, 150 mg/kg
# [3] = Insulin pulmonary delivery, serum insulin by ELISA, ratio to insulin-alone control; type: in vivo, Sprague-Dawley rats; details: Table 9 pulmonary delivery, rats; volume 1 ml/kg, delivery agent compound 3 mg/kg, insulin 100 mg/kg (so in the source)
# Experimental: Dosing compositions of delivery agent compound and human insulin in water were prepared. Typically, to 1.5 mg of delivery agent compound was added deionized water to bring the volume to 1.0 ml, and the solution was vortexed. […] The pH was adjusted to between about 7.0 to 8.5 with NaOH or HCl. […] The final delivery agent compound dose, insulin dose and volume dose amounts are listed below in Table 9.
# The typical dosing and sampling protocols were as follows. […] A control group of five animals was dosed insulin alone. A tracheal instillator for rodents, equipped with light (available from Penn Century, Inc., Pittsburgh, Pa.) was filled with dosing solution and inserted down the throat until the needle went into the trachea (confirmed visually). The dosing solution was administered by pressing the plunger.
# Blood samples from each animal were collected serially from the tail artery, typically at 5, 15, 30, 60 and 120 minutes after dosing. […] The ratio of the area under the curve (AUC) for the test group versus that of the control group is reported below. The ratio of the maximum serum insulin concentration (Cmax) for the test group versus that of the control group is also reported below.
# [4] = Low molecular weight heparin (LMWH) oral/intracolonic delivery, plasma LMWH by anti-Factor Xa assay; type: in vivo, Sprague-Dawley rats; details: rats
# Procedure, shortened: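 LMWH (parnaparin) plus delivery agent in 25% aqueous propylene glycol, pH about 7, given orally or intracolonically. Citrated blood drawn by cardiac puncture under ketamine (88 mg/kg), typically at 0.5–4.0 h post-dose. Plasma LMWH measured by chromogenic anti-Factor Xa assay; peak of mean plasma concentrations reported.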
# [5] = Interferon oral delivery, serum IFN by immunoassay; type: in vivo, Sprague-Dawley rats; details: rats, delivery agent compound 200 mg/kg, IFN 1 mg/kg, 1 ml/kg
# Experimental: Dosing solutions of delivery agent compound and human interferon (IFN) were prepared in deionized water. […] This mixture was vortexed and placed in a sonicator (about 37° C.). The pH was adjusted to about 7.0 to 8.5 with aqueous NaOH. The mixture was vortexed to produce a uniform suspension or solution, also using sonication and heat if necessary.
# (§1) The typical dosing and sampling protocols were as follows.
# Serum IFN concentrations were quantified using Cytoscreen Immunoassay Kit for human IFN-alpha (catalog # KHC4012 from Biosource International, Camarillo, Calif.). Previous studies indicated baseline values of about zero.
# [6] = Insulin oral delivery, serum human insulin by ELISA; details: rats
# [7] = Daptomycin oral delivery, plasma daptomycin by HPLC; type: in vivo, Sprague-Dawley rats; details: rats, delivery agent compound dose 200 mg/kg, daptomycin dose 50 mg/kg, volume dose 1 mL/kg
# Experimental: Dosing solutions containing a delivery agent compound and daptomycin (Cubist Pharmaceuticals, Cambridge, Mass.) were prepared in 0.9% normal saline. […] This mixture was vortexed and placed in a sonicator (about 37° C.). The pH was adjusted to about 7.0-7.5 with aqueous HCl or NaOH. […] The mixture was vortexed to produce a uniform solution, also using sonication if necessary. The delivery agent compound solution was mixed with daptomycin from a stock solution (200 mg daptomycin/mL in 0.9% normal saline and the pH adjusted, if necessary, to between 6.0-7.0 with NaOH or HCl). The stock solution was stored frozen (−20° C.) wrapped in foil, then thawed and warmed gradually to about 25° C. before using. The delivery agent-daptomycin mixture was vortexed at low speed to produce a uniform solution. The pH was adjusted to about 7.0-7.5 with aqueous NaOH. The solution was then diluted with 0.9% normal saline to the desired volume (usually 2.0 ml) and concentration and stored wrapped in foil before use.
# as §1
# Heparinized rat blood samples were collected via the ventral tail artery, typically at 0.25, 0.5, 0.75, 1.0, 2.0, and 4.0 hours after dosing, and stored on ice. Blood samples were then spun (centrifuged) at 11,500 rpm for 4 minutes at 4° C. to obtain the plasma (supernatant), which was stored at −70° C. The plasma daptomycin concentrations were measured by isocratic reversed phase HPLC, keeping samples at 4° C. during analysis. Blank plasma studies show baseline values of zero.
# Daptomycin blood concentrations results from the individual animals in each dosage group were averaged for each time point.
# [8] = Salmon calcitonin (sCT) oral delivery, serum sCT by EIA; details: rats, delivery agent compound dose 50 mg/kg, sCT dose 100 μg/kg
# [9] = Parathyroid hormone (PTH 1-34) oral/intracolonic delivery, serum PTH by radioimmunoassay; details: rats, oral (PO); delivery agent compound dose 100 mg/kg, PTH dose 200 μg/kg, volume dose 1 ml/kg
# Experimental: Oral gavage (PO) and/or intracolonic (IC) dosing solutions of delivery agent compound and human parathyroid hormone residues 1-34 (PTH) in deionized water were prepared. A solution of the compound was made either with the sodium salt of the delivery agent compound or by converting the free acid to its sodium salt.
# The typical dosing and sampling protocols were as follows. Male Sprague-Dawley rats weighing between 200-250 g were fasted for 24 hours and administered ketamine (44 mg/kg) and chlorpromazine (1.5 mg/kg) 15 minutes prior to dosing and again as needed to maintain anesthesia. A dosing group of five animals was administered one of the dosing solutions. For oral gavage (PO), an 11 cm Rusch 8 French catheter was adapted to a 1 ml syringe with a pipette tip. The syringe was filled with dosing solution by drawing the solution through the catheter, which was then wiped dry. The catheter was placed down the esophagus leaving 1 cm of tubing past the incisors. The dosing solution was administered by pressing the syringe plunger. For intracolonic (IC) dosing, a 7.5 cm Rusch catheter tube (French 8 or 6) was adapted to a syringe with an Eppendorf pipette tip. The syringe was filled with the dosing solution by drawing the solution through the catheter tube. The catheter tube was wiped dry. K-Y jelly was applied to the tip, avoiding contact with the eye of the tube, and the tube was inserted into the colon through the anus until the tube was no longer visible. The dosing solution was injected by pressing the syringe plunger, and the tube was removed.
# Previous studies indicated baseline values of about zero. Results from the animals in each group were averaged for each time point.
# [10] = IC (intracolonic), delivery agent compound 50 mg/kg, heparin 25 mg/kg, volume dose 1 ml
# [11] = IC, delivery agent compound 50 mg/kg, LMWH 750 IU/kg, 1 ml/kg, 50 mg/kg
structure (smiles),measurement,setting,value
O=C(O)COc1ccccc1O [Compound 3],Mean Peak APTT ± SD,[1]; [10],16.046 ± 0.481 s and 16.984 ± 1.45 s
same,Mean Peak Serum sCT (pg/ml ± SD) (SE),[2],0 ± 81 pg/mL
"O=C(O)CCCCCCCOc1ccccc1O [Compound 7, 8-(2-hydroxyphenoxy)octanoic acid]",Mean Peak APTT ± SD,[1]; [10],130.5 ± 42.6 s and 92 ± 40.3 s and 99.4 ± 25.5 s
same,Cmax (serum insulin),[3],130.9724 μU/ml
same,melting point,,60 to 64 °C
CC(=O)c1ccccc1OCCCCCCCC(=O)O [Compound 12],Mean Peak APTT ± SD,"[1]; PO (oral gavage), delivery agent compound 300 mg/kg, heparin 100 mg/kg, volume dose 3 ml",201.4 ± 45.7 s
same,Mean Peak Plasma LMWH Concentration ± SD,"[4]; IC, delivery agent compound 10 mg/kg, LMWH 750 IU/kg, 1 ml/kg",0.2 ± 0.077 IU/ml
same,Mean Peak Plasma LMWH Concentration ± SD,[4]; [11],1.7 ± 0.308 IU/ml and 1.74 ± 0.304 IU/ml and 2.012 ± 0.124 IU/ml and 1.498 ± 0.462 IU/ml
same,Mean Peak Plasma LMWH Concentration ± SD,"[4]; IC, delivery agent compound 50 mg/kg, LMWH 751 IU/kg, 1 ml/kg",1.5 ± 0.23 IU/ml
same,Mean Peak Plasma LMWH Concentration ± SD,"[4]; PO, delivery agent compound 300 mg/kg, LMWH 3000 IU/kg, 3 ml/kg",0.137 ± 0.18 IU/ml
same,Mean Peak Serum [IFN] ± SD,[5],1.6362 ± 1.68 ng/mL
same,Mean Peak Serum [INS] ± SD,"[6]; delivery agent compound 100 mg/kg, insulin 3 mg/kg, 0.5 ml/kg",205.4 ± 333.4 μU/ml
same,Mean plasma Cmax [daptomycin] ± SD,[7],16.11 ± 17.58 µg/mL
same,Mean Peak Serum sCT (pg/ml ± SD) (SE),[8]; dose volume 0.5 (ml),445 ± 221 pg/mL
same,Mean Peak Serum sCT (pg/ml ± SD) (SE),[8]; dose volume 1 (ml),316 ± 476 pg/mL
same,Mean Peak Serum [PTH] (pg/mL) ± SD,[9],276 ± 252 pg/mL
"NC(=O)c1ccccc1OCCCCCCCC(=O)O [Compound 30, 8-(2-carboxamidophenoxy)caprylic acid]",Mean Peak APTT ± SD,[1]; [10],50.9 ± 20.5 s
same,Mean Peak Plasma LMWH Concentration ± SD,[4]; [11],0.162 ± 0.094 IU/ml and 0.288 ± 0.152 IU/ml
same,Mean Peak Serum [INS] ± SD,"[6]; delivery agent compound 200 mg/kg, insulin 0.5 mg/kg, 1 ml/kg",21.88 ± 13.4 μU/ml
same,Mean plasma Cmax [daptomycin] ± SD,[7],3.06 ± 0.78 µg/mL
same,Mean Peak Serum [PTH] (pg/mL) ± SD,[9],78 ± 71 pg/mL
